Article PMC11435058, “Synthesis of New Thiazole-Privileged Chalcones as Tubulin Polymerization Inhibitors with Potential Anticancer Activities” (Pharmaceuticals, 2024)

Columns and labels:
A498 = assay: NCI-60 anticancer screen (SRB; single dose and five doses); conditions: Homo sapiens
786-0 = assay: as above; conditions: Homo sapiens
SN12C = assay: as above; conditions: Homo sapiens
NCI-H23 = assay: as above; conditions: Homo sapiens
SR = assay: as above; conditions: Homo sapiens
OVCAR-4 = assay: as above; conditions: Homo sapiens
DU-145 = assay: as above; conditions: Homo sapiens
HCC-2998 = assay: as above; conditions: Homo sapiens
PC-3 = assay: as above; conditions: Homo sapiens
TK-10 = assay: as above; conditions: Homo sapiens
KM12 = assay: as above; conditions: Homo sapiens
HT29 = assay: as above; conditions: Homo sapiens
NCI-H460 = assay: as above; conditions: Homo sapiens
EKVX = assay: as above; conditions: Homo sapiens
T-47D = assay: as above; conditions: Homo sapiens, T47D
HOP-92 = assay: as above; conditions: Homo sapiens
COLO 205 = assay: as above; conditions: Homo sapiens
SNB-75 = assay: as above
BT-549 = assay: as above; conditions: Homo sapiens
K-562 = assay: as above; conditions: Homo sapiens
SK-MEL-28 = assay: as above; conditions: Homo sapiens
LOX IMVI = assay: as above; conditions: Homo sapiens
RPMI-8226 = assay: as above; conditions: Homo sapiens
ACHN = assay: as above; conditions: Homo sapiens
HOP-62 = assay: as above; conditions: Homo sapiens
NCI/ADR-RES = assay: as above; conditions: Homo sapiens
A549/ATCC = assay: as above; conditions: Homo sapiens
HCT-15 = assay: as above; conditions: Homo sapiens
CCRF-CEM = assay: NCI-60 anticancer screen (SRB; single dose 10 μM and five doses); conditions: Homo sapiens
[1] = 48 h, read-out: Growth Percentage

**Q.** Which results are given for `Cc1[nH]c(=S)sc1C(=O)/C=C/c1cccc(Cl)c1` [2e, (E)-3-(3-Chlorophenyl)-1-(4-Methyl-2-Thioxo-2,3-Dihydrothiazol-5-yl)Prop-2-En-1-One]?
**A.** GI50 (A498; A498): 19.5 µM; IC50 (A498; A498): 47.9 µM; activity at 10 µM (A498; A498, 48 h, read-out: Growth Percentage, A498, dose of 10 μM): 98%; CC50 (A498; A498, read-out: LC50): 91.2 µM; IC (TGI) (A498; A498, read-out: TGI): 42.7 µM; GI50 (786-0; 786-0): 2.51 µM; IC50 (786-0; 786-0): 4.07 µM; activity at 10 µM (786-0; 786-0, 48 h, read-out: Growth Percentage): 13.3%; CC50 (786-0; 786-0, read-out: LC50): 37.1 µM; IC (TGI) (786-0; 786-0, read-out: TGI): 6.31 µM; GI50 (SN12C): 2 µM; IC50 (SN12C): 3.55 µM; activity at 10 µM (SN12C; [1]): 12%; CC50 (SN12C; read-out: LC50): 8.91 µM; IC (TGI) (SN12C; read-out: TGI): 4.27 µM; GI50 (NCI-H23; NCI-H23): 2.09 µM; IC50 (NCI-H23; NCI-H23): 3.63 µM; activity at 10 µM (NCI-H23; NCI-H23, 48 h, read-out: Growth Percentage): 18%; CC50 (NCI-H23; NCI-H23, read-out: LC50): 12.9 µM; IC (TGI) (NCI-H23; NCI-H23, read-out: TGI): 4.68 µM; GI50 (SR): 2.63 µM; IC50 (SR): 3.89 µM; activity at 10 µM (SR; [1]): 3.42%; CC50 (SR; read-out: LC50): > 100 µM; IC (TGI) (SR; read-out: TGI): > 100 µM; GI50 (OVCAR-4; OVCAR-4): 4.47 µM; IC50 (OVCAR-4; OVCAR-4): 12.9 µM; activity at 10 µM (OVCAR-4; OVCAR-4, 48 h, read-out: Growth Percentage): 31.7%; CC50 (OVCAR-4; OVCAR-4, read-out: LC50): > 100 µM; IC (TGI) (OVCAR-4; OVCAR-4, read-out: TGI): 41.7 µM; GI50 (DU-145; DU-145): 3.24 µM; IC50 (DU-145; DU-145): 4.79 µM; activity at 10 µM (DU-145; DU-145, 48 h, read-out: Growth Percentage): 16.1%; CC50 (DU-145; DU-145, read-out: LC50): 42.7 µM; IC (TGI) (DU-145; DU-145, read-out: TGI): 11.5 µM; GI50 (HCC-2998; HCC 2998): 2.57 µM; IC50 (HCC-2998; HCC 2998): 4.37 µM; activity at 10 µM (HCC-2998; HCC 2998, 48 h, read-out: Growth Percentage): 13.9%; CC50 (HCC-2998; HCC 2998, read-out: LC50): 28.2 µM; GI50 (PC-3; PC-3): 2.88 µM; IC50 (PC-3; PC-3): 4.9 µM; activity at 10 µM (PC-3; PC-3, 48 h, read-out: Growth Percentage): 31.8%; CC50 (PC-3; PC-3, read-out: LC50): > 100 µM; IC (TGI) (PC-3; PC-3, read-out: TGI): 13.8 µM; GI50 (TK-10; TK-10): 19.5 µM; IC50 (TK-10; TK-10): 45.7 µM; CC50 (TK-10; TK-10, read-out: LC50): > 100 µM; IC (TGI) (TK-10; TK-10, read-out: TGI): 47.9 µM; GI50 (KM12; KM12): 1.95 µM; IC50 (KM12; KM12): 3.39 µM; activity at 10 µM (KM12; KM12, 48 h, read-out: Growth Percentage): -30.7%; IC (TGI) (KM12; KM12, read-out: TGI): 3.89 µM; GI50 (HT29; HT-29): 2.24 µM; IC50 (HT29; HT-29): 3.55 µM; activity at 10 µM (HT29; HT-29, 48 h, read-out: Growth Percentage): 29.9%; CC50 (HT29; HT-29, read-out: LC50): 12.6 µM; IC (TGI) (HT29; HT-29, read-out: TGI): 4.9 µM; GI50 (NCI-H460; NCI-H460): 2.75 µM; IC50 (NCI-H460; NCI-H460): 3.55 µM; activity at 10 µM (NCI-H460; NCI-H460, 48 h, read-out: Growth Percentage): 12.1%; CC50 (NCI-H460; NCI-H460, read-out: LC50): 45.7 µM; IC (TGI) (NCI-H460; NCI-H460, read-out: TGI): 7.59 µM; GI50 (EKVX): 10.5 µM; IC50 (EKVX): 24 µM; activity at 10 µM (EKVX; [1]): 34.7%; CC50 (EKVX; read-out: LC50): 95.5 µM; IC (TGI) (EKVX; read-out: TGI): 31.6 µM; GI50 (T-47D): 3.39 µM; IC50 (T-47D): 7.94 µM; activity at 10 µM (T-47D; [1]): 4.54%; CC50 (T-47D; read-out: LC50): > 100 µM; IC (TGI) (T-47D; read-out: TGI): 20.9 µM; GI50 (HOP-92; HOP-92): 3.55 µM; IC50 (HOP-92; HOP-92): 79.4 µM; CC50 (HOP-92; HOP-92, read-out: LC50): > 100 µM; IC (TGI) (HOP-92; HOP-92, read-out: TGI): 30.9 µM; GI50 (COLO 205; COLO 205): 3.55 µM; IC50 (COLO 205; COLO 205): 5.25 µM; activity at 10 µM (COLO 205; COLO 205, 48 h, read-out: Growth Percentage): 70.7%; CC50 (COLO 205; COLO 205, read-out: LC50): 51.3 µM; IC (TGI) (COLO 205; COLO 205, read-out: TGI): 14.4 µM; GI50 (SNB-75; Homo sapiens, SNB-75): 1.66 µM; IC50 (SNB-75; Homo sapiens, SNB-75): 3.8 µM; activity at 10 µM (SNB-75; Homo sapiens, SNB-75, 48 h, read-out: Growth Percentage): 8.74%; TGI (SNB-75; five-dose, CNS Cancer SNB-75): 3.63 µM; GI50 (BT-549; BT-549): 2.24 µM; IC50 (BT-549; BT-549): 5.89 µM; activity at 10 µM (BT-549; BT-549, 48 h, read-out: Growth Percentage): 2.28%; IC (TGI) (BT-549; BT-549, read-out: TGI): 6.17 µM; GI50 (K-562; K562): 3.39 µM; IC50 (K-562; K562): 4.27 µM; activity at 10 µM (K-562; K562, 48 h, read-out: Growth Percentage): 16.8%; CC50 (K-562; K562, read-out: LC50): > 100 µM; IC (TGI) (K-562; K562, read-out: TGI): > 100 µM; GI50 (SK-MEL-28; SK-MEL-28): 2.14 µM; IC50 (SK-MEL-28; SK-MEL-28): 4.07 µM; activity at 10 µM (SK-MEL-28; SK-MEL-28, 48 h, read-out: Growth Percentage): 44.7%; CC50 (SK-MEL-28; SK-MEL-28, read-out: LC50): 13.5 µM; IC (TGI) (SK-MEL-28; SK-MEL-28, read-out: TGI): 4.9 µM; GI50 (LOX IMVI): 1.66 µM; IC50 (LOX IMVI): 2.88 µM; activity at 10 µM (LOX IMVI; [1]): -26.1%; CC50 (LOX IMVI; read-out: LC50): 5.75 µM; IC (TGI) (LOX IMVI; read-out: TGI): 3.09 µM; GI50 (RPMI-8226; RPMI-8226): 2.04 µM; IC50 (RPMI-8226; RPMI-8226): 3.72 µM; activity at 10 µM (RPMI-8226; RPMI-8226, 48 h, read-out: Growth Percentage): 10.4%; CC50 (RPMI-8226; RPMI-8226, read-out: LC50): > 100 µM; IC (TGI) (RPMI-8226; RPMI-8226, read-out: TGI): 5.5 µM; GI50 (ACHN): 2.29 µM; IC50 (ACHN): 3.72 µM; activity at 10 µM (ACHN; [1]): 22.9%; CC50 (ACHN; read-out: LC50): 21.4 µM; IC (TGI) (ACHN; read-out: TGI): 6.03 µM; GI50 (HOP-62; HOP-62): 2.57 µM; IC50 (HOP-62; HOP-62): 4.68 µM; activity at 10 µM (HOP-62; HOP-62, 48 h, read-out: Growth Percentage): 10.4%; CC50 (HOP-62; HOP-62, read-out: LC50): 74.1 µM; IC (TGI) (HOP-62; HOP-62, read-out: TGI): 6.31 µM; GI50 (NCI/ADR-RES): 2.88 µM; IC50 (NCI/ADR-RES): 5.01 µM; activity at 10 µM (NCI/ADR-RES; [1]): -5.11%; CC50 (NCI/ADR-RES; read-out: LC50): > 100 µM; IC (TGI) (NCI/ADR-RES; read-out: TGI): > 100 µM; GI50 (A549/ATCC; A549): 4.79 µM; IC50 (A549/ATCC; A549): 7.41 µM; activity at 10 µM (A549/ATCC; A549, 48 h, read-out: Growth Percentage): 26.5%; CC50 (A549/ATCC; A549, read-out: LC50): > 100 µM; IC (TGI) (A549/ATCC; A549, read-out: TGI): 47.9 µM; GI50 (HCT-15; HCT-15): 2.09 µM; IC50 (HCT-15; HCT-15): 3.55 µM; activity at 10 µM (HCT-15; HCT-15, 48 h, read-out: Growth Percentage): -22%; CC50 (HCT-15; HCT-15, read-out: LC50): 46.8 µM; IC (TGI) (HCT-15; HCT-15, read-out: TGI): 5.89 µM; GI50 (CCRF-CEM): 2.45 µM; IC50 (CCRF-CEM): 3.72 µM; activity at 10 µM (CCRF-CEM; [1]): 15.2%; IC (TGI) (CCRF-CEM; read-out: TGI): 7.94 µM
